Measured values taken from ChEMBL document CHEMBL4814073, “Ring-opening of five-membered heterocycles conjugated 4-isopropylresorcinol scaffold-based benzamides as HSP90 inhibitors suppressing tumor growth in vitro and in vivo” (Eur J Med Chem, 2021).
Active and inactive are the calls of the source. The calls are words filed in the database; no cut-off is given here.

Key:
Cytochrome P450 2C19 = Cytochrome P450 2C19 (Homo sapiens, UniProt P33261); test: Inhibition of CYP2C19 in human liver microsomes using S-mephenytoin as substrate by LC-MS/MS analysis; format: ADME
Cytochrome P450 2C19, sequence (P33261 whole entry): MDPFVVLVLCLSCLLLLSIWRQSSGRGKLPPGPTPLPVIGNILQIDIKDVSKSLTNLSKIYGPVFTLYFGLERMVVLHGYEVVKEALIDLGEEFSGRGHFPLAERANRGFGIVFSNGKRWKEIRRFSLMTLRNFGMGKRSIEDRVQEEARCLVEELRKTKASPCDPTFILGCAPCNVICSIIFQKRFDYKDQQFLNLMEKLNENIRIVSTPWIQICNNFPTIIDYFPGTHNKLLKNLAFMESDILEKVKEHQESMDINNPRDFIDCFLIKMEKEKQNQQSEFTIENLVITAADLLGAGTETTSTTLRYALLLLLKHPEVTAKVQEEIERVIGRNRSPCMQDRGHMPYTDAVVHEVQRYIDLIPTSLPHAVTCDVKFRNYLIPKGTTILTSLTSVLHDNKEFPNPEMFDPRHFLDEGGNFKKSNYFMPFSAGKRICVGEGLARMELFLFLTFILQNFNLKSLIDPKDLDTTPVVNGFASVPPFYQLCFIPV

Cytochrome P450 2C9 = Cytochrome P450 2C9 (Homo sapiens, UniProt P11712); test: Inhibition of CYP2C9 in human liver microsomes using diclofenac as substrate by LC-MS/MS analysis; format: ADME
Cytochrome P450 2C9, sequence (P11712 whole entry): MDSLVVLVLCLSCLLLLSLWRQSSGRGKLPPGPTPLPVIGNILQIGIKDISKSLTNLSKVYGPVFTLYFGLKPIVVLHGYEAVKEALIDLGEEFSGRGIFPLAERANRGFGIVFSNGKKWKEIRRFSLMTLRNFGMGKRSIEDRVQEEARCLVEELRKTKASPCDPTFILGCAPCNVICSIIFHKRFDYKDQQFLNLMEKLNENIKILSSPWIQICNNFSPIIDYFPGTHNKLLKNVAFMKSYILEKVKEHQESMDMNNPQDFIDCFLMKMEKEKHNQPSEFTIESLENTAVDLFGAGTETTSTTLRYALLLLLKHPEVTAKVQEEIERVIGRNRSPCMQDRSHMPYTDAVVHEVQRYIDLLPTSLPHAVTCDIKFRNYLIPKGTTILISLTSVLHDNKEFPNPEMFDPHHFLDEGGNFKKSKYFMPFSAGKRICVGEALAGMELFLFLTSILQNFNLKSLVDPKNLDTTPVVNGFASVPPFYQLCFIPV

[1] = Metabolic stability in Sprague-Dawley rat hepatocytes assessed as Intrinsic clearance by LC-MS/MS analysis; format: ADME, cell-based, Hepatocyte
A549 [2] = test: Induction of EGFR degradation in human A549 cells assessed as reduction in eGFR expression measured after 24 hrs by immunoblot analysis; format: functional, cell-based; settings: dose microM <=3, time 24.0 hrs
[3] = Apparent permeability across apical to basolateral in human Caco2 cells by LC-MS/MS analysis; format: ADME, cell-based; settings: Caco-2, read-out: permeability
A549 [4] = test: Induction of apoptosis in human A549 cells assessed as increase in cleaved caspase 3 protein expression at 0.3 to 3 uM measured after 18 hrs by western blot analysis; format: functional, cell-based; settings: dose 0.3-3 µM
Heat shock protein HSP90 [5] = target: T1, Heat shock protein HSP90 (Homo sapiens, UniProt P07900+P08238); test: Inhibition of HSP90 in human A549 cells assessed as downregulation of Src expression incubated for 24 hrs by immunoblot analysis; format: cell-based; settings: dose microM <=3, time 24.0 hrs
A549 [6] = test: Induction of apoptosis in human A549 cells assessed as increase in cleaved caspase 9 protein expression at 0.3 to 3 uM measured after 18 hrs by western blot analysis; format: functional, cell-based; settings: dose 0.3-3 µM
[7] = Hepatic clearance in CD1 mouse by LC-MS/MS analysis; format: ADME, tissue-based, Hepatocyte; settings: hepatocytes
A549 [8] = test: Induction of cell cycle arrest in human A549 cells assessed as M stage arrest by measuring upregulation of p-MPM-2 expression at 0.3 uM incubated for 24 hrs by Western blot analysis; format: functional, cell-based
[9] = AUC (0 to t) in Sprague-Dawley rat at 2 mg/kg, iv measured after 1 hrs by LC-MS/MS analysis; format: ADME, organism-based; design: route intravenous, time 1 hrs, dose 2 mg/kg; settings: in vivo
A549 [10] = test: Antitumor activity against human A549 cells xenografted in BALB/c mouse assessed as tumor growth inhibition at 25 mg/kg, po treated daily relative to control; settings: read-out: TGI
A549 [11] = test: Induction of cell cycle arrest in human A549 cells assessed as upregulation of cyclinB1 protein expression at 0.3 uM incubated for 24 hrs by Western blot analysis; format: functional, cell-based
Heat shock protein HSP90 [12] = target: T1, Heat shock protein HSP90; test: Inhibition of HSP90 in human A549 cells assessed as downregulation of FAK expression at 3 uM by immunoblot analysis; format: cell-based; settings: time hrs <=24, TDE = time-dependent effect
Cytochrome P450 2C8 = target: T2, Cytochrome P450 2C8 (Homo sapiens, UniProt P10632); test: Inhibition of CYP2C8 in human liver microsomes using amodiaquine as substrate by LC-MS/MS analysis; format: ADME
T2 sequence (P10632 whole entry): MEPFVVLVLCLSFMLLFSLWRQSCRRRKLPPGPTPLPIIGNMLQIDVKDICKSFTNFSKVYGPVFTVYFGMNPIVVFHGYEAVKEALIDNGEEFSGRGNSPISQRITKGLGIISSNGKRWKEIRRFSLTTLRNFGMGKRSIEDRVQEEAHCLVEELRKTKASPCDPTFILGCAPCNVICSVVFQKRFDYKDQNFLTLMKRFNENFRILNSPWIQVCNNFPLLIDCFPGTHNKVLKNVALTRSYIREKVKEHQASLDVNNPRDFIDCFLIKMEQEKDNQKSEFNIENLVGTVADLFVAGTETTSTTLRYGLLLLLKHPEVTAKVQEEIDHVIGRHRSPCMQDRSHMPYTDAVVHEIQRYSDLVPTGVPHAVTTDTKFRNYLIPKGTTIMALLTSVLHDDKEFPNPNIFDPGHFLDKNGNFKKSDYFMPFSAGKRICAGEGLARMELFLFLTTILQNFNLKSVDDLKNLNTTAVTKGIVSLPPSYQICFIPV

[13] = Half life in Sprague-Dawley rat at 20 mg/kg, po measured after 1 hrs by LC-MS/MS analysis; format: ADME, organism-based; settings: in vivo
[14] = Half life in Sprague-Dawley rat at 2 mg/kg, iv measured after 1 hrs by LC-MS/MS analysis; format: ADME, organism-based; settings: in vivo
[15] = Metabolic stability in Sprague-Dawley rat hepatocytes assessed as half life by LC-MS/MS analysis; format: ADME, cell-based, Hepatocyte
NCI-H1975 = test: Antiproliferative activity against human NCI-H1975 cells harbouring EGFR L858R/T790M mutant measured after 48 hrs by SRB assay; settings: NCI-H1975, 48 h
A549 [16] = test: Induction of cell cycle arrest in human A549 cells assessed as increases in cdc2 expression at Thr161 at 0.3 uM incubated for 24 hrs by Western blot analysis; format: functional, cell-based
[17] = Tmax in Sprague-Dawley rat at 2 mg/kg, iv measured after 1 hrs by LC-MS/MS analysis; format: ADME, organism-based; settings: in vivo
A549 [18] = test: Induction of EGFR degradation in human A549 cells assessed as reduction in eGFR expression at 3 uM by immunoblot analysis; format: functional, cell-based; settings: time hrs <=24, TDE = time-dependent effect
[19] = Clearance in Sprague-Dawley rat at 2 mg/kg, iv measured after 1 hrs by LC-MS/MS analysis; format: ADME, organism-based; settings: in vivo
A549 [20] = test: Inhibition of MAPK signaling pathway in human A549 cells at 3 uM incubated upto 24 hrs by immunoblot analysis; format: cell-based; settings: time hrs <=24, TDE = time-dependent effect
A549 [21] = test: Induction of apoptosis in human A549 cells assessed as increase in cleaved caspase 7 protein expression at 0.3 to 3 uM measured after 18 hrs by western blot analysis; format: functional, cell-based; settings: dose 0.3-3 µM
[22] = Hepatic clearance in Sprague-Dawley rat by LC-MS/MS analysis; format: ADME, tissue-based, Hepatocyte; settings: hepatocytes
[23] = Metabolic stability in Beagle dog hepatocytes assessed as half life by LC-MS/MS analysis; format: ADME, cell-based, Canis lupus familiaris, Hepatocyte
[24] = Hepatic clearance in human hepatocytes by LC-MS/MS analysis
Cytochrome P450 2D6 = Cytochrome P450 2D6 (Homo sapiens, UniProt P10635); test: Inhibition of CYP2D6 in human liver microsomes using dextromethorphan as substrate by LC-MS/MS analysis; format: ADME
Cytochrome P450 2D6, sequence (P10635 whole entry): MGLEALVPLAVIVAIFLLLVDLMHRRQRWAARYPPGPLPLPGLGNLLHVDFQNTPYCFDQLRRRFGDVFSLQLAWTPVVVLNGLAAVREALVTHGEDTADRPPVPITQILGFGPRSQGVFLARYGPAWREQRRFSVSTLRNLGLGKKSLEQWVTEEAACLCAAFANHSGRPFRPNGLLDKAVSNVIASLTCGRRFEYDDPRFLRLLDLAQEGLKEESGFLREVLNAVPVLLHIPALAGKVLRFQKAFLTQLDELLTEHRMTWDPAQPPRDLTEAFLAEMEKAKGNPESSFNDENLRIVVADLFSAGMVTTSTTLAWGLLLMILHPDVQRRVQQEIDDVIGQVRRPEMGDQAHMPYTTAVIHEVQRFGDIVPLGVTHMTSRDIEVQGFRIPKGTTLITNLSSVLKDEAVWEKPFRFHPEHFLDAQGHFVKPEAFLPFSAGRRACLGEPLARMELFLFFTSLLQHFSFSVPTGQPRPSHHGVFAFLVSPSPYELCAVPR

[25] = Cmax in Sprague-Dawley rat at 20 mg/kg, po measured after 1 hrs by LC-MS/MS analysis; format: ADME, organism-based; design: route oral, dose 20 mg/kg, time 1 hrs; settings: in vivo
A549 [26] = test: Induction of cell cycle arrest in human A549 cells assessed as decrease in cdc25c expression at Ser216 at 0.3 uM incubated for 24 hrs by Western blot analysis; format: functional, cell-based
CYP2C8 = target: T3, CYP2C8 (Homo sapiens, UniProt P10632); test: Inhibition of CYP2C8 in human liver microsomes using amodiaquine as substrate at 50 uM by LC-MS/MS analysis; format: ADME; settings: probe amodiaquine
T3 sequence (P10632 whole entry): T2 sequence (P10632 whole entry)

[27] = Metabolic stability in human hepatocytes assessed as half life by LC-MS/MS analysis; format: ADME, cell-based, Hepatocyte
[28] = Metabolic stability in CD1 mouse hepatocytes assessed as half life by LC-MS/MS analysis; format: ADME, cell-based, Hepatocyte
A549 [29] = test: Antitumor activity against human A549 cells xenografted in BALB/c mouse assessed as tumor growth delay at 50 mg/kg, po treated daily relative to control

Structure (SMILES): CCN(C(=O)c1cc(C(C)C)c(O)cc1O)c1cccnc1
- IC50 (Cytochrome P450 2C19): 7.8 µM
- IC50 (Cytochrome P450 2C9): 15 µM
- CLint [1]: 751 mL/min/kg
- Activity (A549 [2]): Dose-Dependent Effect
- Papp A→B [3]: 31.9 ×10⁻⁶ cm/s
- Activity (A549 [4]): Active
- inhibition (Heat shock protein HSP90 [5]): Dose-Dependent Effect
- Activity (A549 [6]): Active
- CLhep predicted [7]: 87.5 mL/min/kg
- Activity (A549 [8]): Active
- AUCt [9]: 487 ng·h/mL
- inhibition in vivo at 25 mg/kg (A549 [10]): 46.7%
- Activity (A549 [11]): Active
- inhibition (Heat shock protein HSP90 [12]): Tde
- IC50 (Cytochrome P450 2C8): > 50 µM
- half-life [13]: 984 min
- half-life [14]: 174 min
- half-life [15]: 11.2 min
- GI50 (NCI-H1975): 0.05 µM
- Activity (A549 [16]): Active
- Tmax [17]: 1.8 min
- Activity (A549 [18]): Tde
- clearance [19]: 73.2 mL/min/kg
- inhibition (A549 [20]): Tde
- Activity (A549 [21]): Active
- CLhep predicted [22]: 51.2 mL/min/kg
- half-life [23]: 39.2 min
- CLhep predicted [24]: 14.7 mL/min/kg
- IC50 (Cytochrome P450 2D6): > 50 µM
- Cmax [25]: 40.5 ng/mL
- Activity (A549 [26]): Active
- inhibition at 50 µM (CYP2C8): 54.3%
- half-life [27]: 67.6 min
- half-life [28]: 5.31 min
- Activity (A549 [29]): 72%
